From patent US20130046098A1, “KINASE INHIBITORS” (THE UNIVERSITY OF MANCHESTER, priority 2009, published 2013)
“Also recorded” adds a separate entry of the source.

How the values were obtained:
[1] = system: single transformed colony derived GEF16 cells co-cultured with non-transformed vector cells; experiment: Co-culture of single colony derived GEF16 cells with non-transformed vector cells; type: cell-based, mouse; conditions: 10 μM, 10 days
Method: (§1) FIG. 5 illustrates that the growth suppressive effects of YA1 on single transformed colony derived GEF16 NIH3T3 cells and polyclonal Ras transformed NIH3T3 cells are more pronounced when these are co-cultured with non-transformed cells. In FIG. 5A single transformed colonies were picked from 10 day cultures of GEF16 polyclonal NIH3T3 cells and expanded. These cells were then seeded at 2.0×10^5 cells per 30 mm dish and treated with 10 μM of YA1 or DMSO control either immediately or following 10 days in culture. Duplicate wells were harvested for flow cytometry. In FIG. 5B a total of 2×10^5 cells per well were plated consisting of increasing numbers of non-transformed vector cells co-cultured with decreasing numbers of single transformed colony derived GEF16 cells. These were treated with 10 μM of either YA1 or DMSO for 10 days. In producing the results shown in FIG. 5C the same co-culture experiment described in connection with FIG. 5B was carried out substituting polyclonal Ras transformed NIH3T3 cells for GEF16 transformed cells.
Non-transformed vector cells mixed with decreasing numbers of cells expanded from single GEF16 transformed colonies were treated with the compound of the invention YA1, or with DMSO, and incubated for 10 days.

[2] = system: single transformed colony derived GEF16 NIH3T3 cells; experiment: Growth of cell populations derived from single GEF16 transformed colonies; type: cell-based, mouse
Method: as §1
Single transformed colonies were picked from GEF16 polyclonal NIH3T3 cells and expanded according to the methods described above. Expanded cell populations were plated and a compound of the invention (YA1) added either immediately or after 10 days when the cells were post-confluent.

[3] = system: GEF16 transformed donor cells and non-transformed NIH3T3-vector recipient cells; experiment: Flow cytometric LY/PKH67 assay of gap junction intercellular communication (GJIC); type: cell-based, mouse; conditions: 10 μM, p<0.05, FIG. 6B
Method: A novel flow cytometric assay was developed to measure the extent of gap junction intercellular communication (GJIC) using two differentially stained cell populations. Non-transformed recipient NIH3T3-vector cells were stained with PKH67 (Excitation 490, Emission 502, Sigma-Aldrich, Poole, UK) and GEF16 transformed donor cells were stained with Lucifer yellow (LY) (Excitation 427 nm, Emission 517 nm, Invitrogen Ltd., Paisley, UK) as follows.
A 1 ml suspension of 1×10^7 recipient cells in serum-free DMEM was mixed with an equal volume of 4 μM PKH67 solution and incubated for 5 min at room temperature. The reaction was terminated by adding 2 ml serum and incubating for 1 min. Cells were then washed three times with culture medium, and seeded at 1.5×10^6 cells/T-25 flask. […]
LY labelled donor cells were then harvested and 1×10^5 were added to the T25 flask containing the PKH67 labelled recipient cells plus 10 μM YA1 or DMSO control. After incubating for various time intervals, the co-cultured donor and recipient cells were collected and analysed using a BD FACS Aria™ (BD Biosciences, Oxford, UK). A 405 nm laser was used for LY excitation and emission was measured using a 515 nm to 545 nm band pass filter. GJIC between co-cultured donor and recipient cells was quantified as the percentage of LY and PKH67 double labelled cells.

[4] = system: polyclonal GEF16 transfected NIH3T3 cells; experiment: Transformed colony forming assay (Toluidine blue)
Method: Following this incubation period the compound was then removed from the culture media and cells maintained in normal growth media for a further 10 days before the photographs shown were taken.
In FIG. 4A polyclonal GEF16 transfected cells were seeded at 2.0×10^5 cells per 30 mm dish and incubated over night. […] After a further 10 days culture in the absence of inhibitors the cells were stained with Toluidine blue and photographed to produce the images shown. […] These were incubated for 3 or 6 days then stained with Toluidine blue before being photographed.
Medium (containing the compound of interest—either Y27632 or the selected compounds of the invention—or DMSO control) was changed every 2 days. Formation of foci was analysed by Toluidine blue (Sigma-Aldrich, Poole, UK) staining after 10 days growth post confluence. […] Each assay was carried out in triplicate and the results shown are representative of at least three separate experiments.

[5] = system: GEF16 transfected NIH3T3 cells; experiment: Cell proliferation assay (Celltiter Aq96); type: cell-based, mouse; conditions: 10 μM, FIG. 3B, P>0.05
Method: FIG. 1D is a bar chart showing the results of Cell AQ^96 assessment of the growth of GEF16 and vector transfected cells seeded in a 96 well plate at 1×10^3 cells per well. These were incubated for 3 days followed by addition of reagent to determine the starting point for the assay. 10 μM of either Y27632 or DMSO were then added to wells containing both cell types and Cell AQ^96 absorbance measured at 6, 8 and 10 days. At day 3 cells were 100% confluent which was determined by phase contrast visual inspection of the cultures at ×20 magnification;
Cell proliferation was investigated using Celltiter Aq^96 reagent (Promega, Southampton, UK) according to the manufacturer's protocol. Cells were seeded into a 96-well plate at a density of 1×10^3 cells/well allowing 3 wells per data point and allowed to attach for a set period. Following this, the initial starting point 490 nm absorbance was determined by adding 20 μl of Aq^96 reagent to each well and incubating for 4 h at 37° C. in 5% CO2 (96-well plate reader, Dynex Technologies, West Sussex, UK). The various compounds (Y27632 or compounds of the invention) or DMSO control were then added to duplicate wells and the absorbance determined in the same way at the time points indicated. Each data set shown is representative of three separate experiments.

ROCK = experiment: SelectScreen 40 kinase panel; type: biochemical, human; conditions: 10 μM, Km ATP
Text: The SelectScreen™ kinase inhibitor assay service was used (Invitrogen Ltd., Paisley, UK) to investigate the ability of the compounds of the invention to inhibit a large number of different kinases. This commercially provided service allows assessment of the ability of a compound (or compounds) of interest to inhibit a broad panel of human kinases. Further details regarding this service are available on the Invitrogen website at:
In the present study YA1 (a compound in accordance with formula (V)) was investigated for its ability to inhibit the activity of the 40 kinases shown in panel B of FIG. 2. The compounds of the invention were diluted in DMSO at a concentration of 10 mM and single-point kinase inhibitory activities were measured at 10 μM and Km ATP concentration.

[6] = system: polyclonal Ras transformed NIH3T3 cells; experiment: Co-culture of Ras transformed cells with non-transformed cells / Ras colony formation; type: cell-based, mouse
Method: as §1, with “In producing the results shown in FIG. 5C the same co-culture experiment described in connection with FIG. 5B was carried out substituting polyclonal Ras transformed NIH3T3 cells for GEF16 transformed cells.” left out
Transformed cell populations were produced by transfection with constructs causing cellular expression of GEF16 or Ras as follows. The full-length GEF16 open reading frame (Accession NM_014448) was PCR amplified, sequence verified and subcloned into the mammalian expression vector pCMVTag (Invitrogen Ltd., Paisley, UK) to produce a construct pCMVTag-GEF16 cDNA. […]

Q: For `CC(C)(C)OC(=O)NCc1ccc(C(=O)Nc2ccncc2)cc1` [YA1, 4-(Pyridin-4-ylcarbamoyl)benzylcarbamic acid tert-butyl ester], which “final saturation density / growth of transformed cells in co-culture with non-transformed cells” value [1] is on record?
A: marked reduction in the final saturation density of the cultures; also recorded: more effective at suppressing the growth of transformed cells when these are in contact with non-transformed cells; also recorded: clearly restored when these are co-cultured with non-transformed NIH3T3 cells

Q: What about the “effect on single colony derived GEF16 cells, added to post-confluent cultures” value ([2]; 10 μM, added after 10 days in culture) of the same molecule?
A: no discernible effect when compared to controls

Q: What about the “saturation density of single colony derived GEF16 cells, added to low density cultures” value ([2]; 10 μM, added immediately) of the same molecule?
A: modest effect when added to low density cultures

Q: And the “effect on single colony derived GEF16 transformed cells grown in the absence of non-transformed cells” value ([2]; FIG. 5A)?
A: little or no effect

Q: And the “number of double LY/PKH67 labelled cells compared to DMSO control” value [3]?
A: approximately 3 times

Q: What about the “number of transformed foci after transient exposure and withdrawal” value ([4]; 10 μM for 2, 4, 6, 8, 10 days, then 10 day chase in normal media) of the same molecule?
A: progressive decrease in the number of transformed foci associated with increased time of exposure

Q: What about the “transformed focus formation after treatment, re-seeding and chase” value ([4]; 10 μM for 2-10 days, re-seeded at 2×10^5, 10 day chase without inhibitor) of the same molecule?
A: able to suppress transformed focus formation

Q: What about the “formation of GEF16 transformed colonies” value ([4]; 10 μM, 10 days, post confluent cultures) of the same molecule?
A: able to block transformed GEF16 colony formation to an extent comparable to the inhibition achieved using Y27632; also recorded: greatest ability to inhibit GEF16 transformed colonies

Q: What about the “effect on pre-formed transformed colonies” value ([4]; colonies formed for 10 days, then 10 μM or 20 μM for 3 and 6 days) of the same molecule?
A: marked reduction in their numbers

Q: And the “growth rates of sub-confluent GEF16 polyclonal cells versus DMSO control” value [5]?
A: no detectable difference in growth rates

Q: And the ROCK inhibitory activity (ROCK)?
A: ~40%

Q: And the “growth suppression / colony formation of Ras transformed NIH3T3 cells” value ([6]; 10 μM, 10 days, co-culture with non-transformed cells)?
A: same growth suppressive effects on Ras transformed NIH3T3 cell colonies as with GEF16 transformed cells; also recorded: highly effective at preventing the formation of Ras transformed NIH3T3 colonies

Q: What about the “contact inhibition and polarity of Ras transformed cells (phase contrast images)” value ([6]; YA1 treated) of the same molecule?
A: regain both contact inhibition and polarity
